Read-outs that look alike come from different tables or passages of the source. *1 amine or outer side, *2 acyl side, *3 side chain or, on linkers, in order; H or OH if unused. Where a SMILES comes first, the peptide text is derived from it. Bridges are numbered along the chain shown (N, C = ends). [ ]: non-standard residue; d: D form. X18 = CNC(=N)N(C)c1ccc(C[C@H](N[*:1])C(=O)[*:2])cc1; Ala(pyrimidin-5-yl) = N[C@@H](Cc1cncnc1)C(=O)O; NMe3Pal(6-Me) = CN[C@@H](Cc1ccc(C)nc1)C(=O)O; X46 = O=C([C@H](Cc1cccnc1F)N[*:1])[*:2]; NMeAha = CN[C@@H](CCN=[N+]=[N-])C(=O)O; X40 = CC(C)(F)C[C@H](N[*:1])C(=O)[*:2]; 1Nal = N[C@@H](Cc1cccc2ccccc12)C(=O)O; NHCH2CH2SCH2CO = O=C(CSCCN[*:1])[*:2]; Ala(cPent) = N[C@@H](CC1CCCC1)C(=O)O; Phe(2-F) = N[C@@H](Cc1ccccc1F)C(=O)O; NMe3Pal = CN[C@@H](Cc1cccnc1)C(=O)O; X1 = O=C(C12CC(CN[*:1])(C1)C2)[*:2]; NMeOrn(Me) = CNCCC[C@H](NC)C(=O)O; Ala(cPr) = N[C@@H](CC1CC1)C(=O)O; NMeF = CN[C@@H](Cc1ccccc1)C(=O)O; PhLac = O=C(O)[C@@H](O)Cc1ccccc1; 3Pal = N[C@@H](Cc1cccnc1)C(=O)O; d3Pal = N[C@H](Cc1cccnc1)C(=O)O; Ahp(2) = CCCCC[C@H](N)C(=O)O; Cba = N[C@@H](CC1CCC1)C(=O)O; hLeu = CC(C)CC[C@H](N)C(=O)O; hSer = N[C@@H](CCO)C(=O)O; αMeC = C[C@](N)(CS)C(=O)O; NMeA = CN[C@@H](C)C(=O)O; Nle = CCCC[C@H](N)C(=O)O
Biological target: KRAS-G12D protein (Homo sapiens, UniProt P01116, G12D)
Test: SOS-mediated nucleotide exchange assay (BODIPY-GDP / Tb-streptavidin TR-FRET)
Format: biochemical

KRAS-G12D protein, sequence (P01116 1-188 isoform P01116-2 G12D): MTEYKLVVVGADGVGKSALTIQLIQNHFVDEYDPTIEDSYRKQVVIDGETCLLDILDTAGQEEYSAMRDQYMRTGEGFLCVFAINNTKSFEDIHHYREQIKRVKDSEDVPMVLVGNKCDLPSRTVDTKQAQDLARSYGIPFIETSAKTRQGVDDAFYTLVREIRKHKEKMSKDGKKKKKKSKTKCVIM

SMILES | EC50 [nM] | EC50 (listed as 189) [nM]
CCCC[C@@H]1NC(=O)[C@H](Cc2ccccc2F)NC(=O)[C@H](CC2CCC2)NC(=O)[C@@H](Cc2cccnc2)NC(=O)[C@H](CCCNC(=N)N)NC(=O)[C@H](Cc2ccccc2)NC(=O)C23CC(CNC(=O)[C@H](Cc4cccnc4)N(C)C1=O)(C2)C3 [compound 103, cyclo(F-R-d3Pal-cBuA-Phe2F-Nle-NMe3Pal-amBCP)] (cyclo(FR[d3Pal][Cba][Phe(2-F)][Nle][NMe3Pal][X1])) | 3.19 | –
CCCC[C@@H]1NC(=O)[C@H](Cc2ccccc2F)NC(=O)[C@H](CC2CCCC2)NC(=O)[C@H](Cc2cncnc2)NC(=O)[C@H](C)N(C)C(=O)[C@H](Cc2ccccc2)OC(=O)C23CC(CNC(=O)[C@H](Cc4cccnc4)N(C)C1=O)(C2)C3 [compound 126, cyclo(FLac-NMeA-PyrimAla-cPeA-Phe2F-Nle-NMe3Pal-amBCP)] (cyclo([Ala(cPent)][Phe(2-F)][Nle][NMe3Pal][X1][PhLac][NMeA][Ala(pyrimidin-5-yl)])) | 22.3 | –
CCCC[C@@H]1NC(=O)[C@H](COC)NC(=O)[C@H](CC2CCC2)NC(=O)[C@H](Cc2cccnc2)NC(=O)[C@H](CCCNC(=N)N)NC(=O)[C@H](Cc2ccccc2)NC(=O)CSC[C@@](C)(C(N)=O)NC(=O)[C@H](Cc2ccccc2)N(C)C1=O [compound 52, cyclo(F-R-3Pal-cBuA-SerOMe-Nle-NMeF-aMeCl-ClAc)] ({CH2CO}-FR[3Pal][Cba]S(Me)[Nle][NMeF][αMeC]-NH2; thioether N-8) | 943 | –
CCCC[C@@H]1NC(=O)[C@H](Cc2cccnc2)NC(=O)[C@H](CCN=[N+]=[N-])N(C)C(=O)[C@H](Cc2ccccc2)NC(=O)C23CC(CNC(=O)[C@H](Cc4cccnc4)N(C)C(=O)[C@H](CCCC)NC(=O)[C@H](Cc4ccccc4F)NC1=O)(C2)C3 [compound 245, cyclo(F-NMeDabN3-3Pal-Nle-Phe2F-Nle-NMe3Pal-amBCP)] (cyclo(F[NMeAha][3Pal][Nle][Phe(2-F)][Nle][NMe3Pal][X1])) | 267 | –
CC(C)CC[C@@H]1NC(=O)[C@H](Cc2ccccc2F)NC(=O)[C@H](CC(C)(C)F)NC(=O)[C@H](Cc2cncnc2)NC(=O)[C@H](C)N(C)C(=O)[C@H](Cc2ccccc2)OC(=O)C23CC(CNC(=O)[C@H](Cc4ccccc4)N(C)C1=O)(C2)C3 [compound 136, cyclo(FLac-NMeA-PyrimAla-Leu3F-Phe2F-hL-NMeF-amBCP)] (cyclo([NMeA][Ala(pyrimidin-5-yl)][X40][Phe(2-F)][hLeu][NMeF][X1][PhLac])) | 114 | –
CCCC[C@@H]1NC(=O)[C@H](CCCCN)NC(=O)[C@H](CCCNC(=N)N)NC(=O)[C@H](Cc2cccc3ccccc23)NC(=O)CSCCNC(=O)[C@H](Cc2ccccc2)N(C)C(=O)[C@H](CCCC)NC(=O)[C@H](Cc2ccc(O)cc2)NC1=O [compound 71, cyclo(INal-R-K-Nle-Y-Nle-NMeF-Cysteamine-ClAc)] (cyclo([1Nal]RK[Nle]Y[Nle][NMeF][NHCH2CH2SCH2CO])) | 526 | –
CCCC[C@@H]1NC(=O)[C@H](Cc2cccnc2)NC(=O)[C@H](C)N(C)C(=O)[C@H](Cc2ccccc2)OC(=O)C23CC(CNC(=O)[C@H](Cc4ccccc4)N(C)C(=O)[C@H](CCCC)NC(=O)[C@H](Cc4ccccc4F)NC1=O)(C2)C3 [compound 236, cyclo(FLac-NMeA-3Pal-Nle-Phe2F-Nle-NMeF-amBCP)] (cyclo([3Pal][Nle][Phe(2-F)][Nle][NMeF][X1][PhLac][NMeA])) | 50.3 | –
COc1ccc(C[C@@H]2NC(=O)[C@H](CC3CCC3)NC(=O)[C@H](Cc3cccnc3)NC(=O)[C@H](CCCNC(=N)N)NC(=O)[C@H](Cc3ccccc3)NC(=O)CSC[C@](C)(C(N)=O)NC(=O)[C@@H]3CCCCCCC[C@H](NC2=O)C(=O)N3C)cc1 (single isomer, unassigned) [SEQ ID NO: 189] | – | 1560
CCCC[C@@H]1NC(=O)[C@H](Cc2ccccc2F)NC(=O)[C@H](CC2CCC2)NC(=O)[C@H](CCO)NC(=O)[C@H](CCCNC(=N)N)NC(=O)[C@H](Cc2ccccc2)NC(=O)CSC[C@@](C)(C(N)=O)NC(=O)[C@H](Cc2ccccc2)N(C)C1=O [compound 50, cyclo(F-R-hS-cBuA-Phe2F-Nle-NMeF-aMeCl-ClAc)] ({CH2CO}-FR[hSer][Cba][Phe(2-F)][Nle][NMeF][αMeC]-NH2; thioether N-8) | 503 | –
CC(C)CC[C@@H]1NC(=O)[C@H](Cc2cccnc2F)NC(=O)[C@H](CC2CC2)NC(=O)[C@H](Cc2cncnc2)NC(=O)[C@H](C)N(C)C(=O)[C@H](Cc2ccccc2)OC(=O)C23CC(CNC(=O)[C@H](Cc4ccccc4)N(C)C1=O)(C2)C3 [compound 215, cyclo(FLac-NMeA-PyrimAla-cPrA-3Pal2F-hL-NMeF-amBCP)] (cyclo([Ala(cPr)][X46][hLeu][NMeF][X1][PhLac][NMeA][Ala(pyrimidin-5-yl)])) | 31 | –
CCCCC[C@@H]1NC(=O)[C@H](Cc2ccc(OC)cc2)NC(=O)[C@H](CC2CCC2)NC(=O)[C@H](Cc2ccc(N(C)C(=N)NC)cc2)NC(=O)[C@H](CCCNC)N(C)C(=O)[C@H](Cc2ccccc2)NC(=O)CSC[C@@](C)(C(N)=O)NC(=O)[C@H](Cc2ccc(C)nc2)N(C)C1=O [compound 395, cyclo(F-NMeOmMe-Phe4GnMeMe-cBuA-TyrOMe-Ahp-NMe3Pal4Me-aMeCl-ClAc)] ({CH2CO}-F[NMeOrn(Me)][X18][Cba]Y(Me)[Ahp(2)][NMe3Pal(6-Me)][αMeC]-NH2; thioether N-8) | 16 | –

Source: patent US20260001914A1, “MACROCYCLIC PEPTIDES TARGETING KRAS” (Merck Sharp & Dohme LLC, priority 2022, published 2026)
